Measurements from patent publication US20240246908A1 (ORION CORPORATION, priority 2021, published 2024).

Each molecule was assayed on YAP-TEAD (assay: TEAD inhibition, Hippo Pathway TEAD Reporter MCF-7 luciferase assay). Conditions: Homo sapiens, MCF7, 24 h, Hippo Pathway TEAD Reporter MCF-7 cells, luciferase activity after 24 h; read-out: IC50 of the test compounds on YAP-TEAD inhibition (Group).
Format: cell-based
Experimental: TEAD inhibition was assayed using Hippo Pathway TEAD Reporter—MCF-7 cell line (BPS Bioscience, Catalog #: 60618) which contains firefly luciferase gene under the control of TEAD responsive elements. In the cell line, YAP1 remains in the nucleus inducing constitutive expression of luciferase reporter. Amount of expressed luciferase was detected using ONE-Glo Luciferase Assay System (Promega) and measuring plates with Enspire Multimode Plate Reader (PerkinElmer).
Hippo Pathway TEAD Reporter—MCF-7 cells were plated on white/clear Poly-D-Lysine coated 384 plates (Corning #356660) at the density of 8500 cells/well. Next day test compounds (11 concentrations with 4 replicates) and DMSO control (0.1%) were added to the plate. After 24 h cells were lysed and luciferase activity was measured. The half maximal inhibitory concentration (IC50) of the test compounds on YAP-TEAD inhibition was determined.

SMILES	IC50 [µM]
COc1c(F)cc(COc2cccc(F)c2)cc1NC(=O)C1CCC(=O)N1 (stereo not shown) [Compound 36, N-(3-Fluoro-5-((3-fluorophenoxy)methyl)-2-methoxyphenyl)-5-oxopyrrolidine-2-carboxamide]	0.05 to 0.3
CCN1C(=O)CCC1C(=O)Nc1cc(Oc2cccc(C(F)(F)F)c2)ccc1OC (stereo not shown) [Compound 37, 1-Ethyl-N-(2-methoxy-5-(3-(trifluoromethyl)phenoxy)phenyl)-5-oxopyrrolidine-2-carboxamide]	0.05 to 0.3
COc1ccc(Oc2cccc(C(F)(F)F)c2)cc1NC(=O)C1CCC(=O)N1C(=O)C1CC1 (stereo not shown) [Compound 38, 1-(Cyclopropanecarbonyl)-N-(2-methoxy-5-(3-(trifluoromethyl)phenoxy)-phenyl)-5-oxopyrrolidine-2-carboxamide]	0.301 to 2
COc1cc(F)c(Oc2cccc(C(F)(F)F)c2)cc1NC(=O)C1CCC(=O)N1C(C)=O (stereo not shown) [Compound 39, 1-Acetyl-N-(4-fluoro-2-methoxy-5-(3-(trifluoromethyl)phenoxy)phenyl)-5-oxopyrrolidine-2-carboxamide]	0.05 to 0.3
CC(=O)N1C(=O)CCC1C(=O)Nc1cc(Oc2cccc(C(F)(F)F)c2)ccc1F (stereo not shown) [Compound 40, 1-Acetyl-N-(2-fluoro-5-(3-(trifluoromethyl)phenoxy)phenyl)-5-oxopyrrolidine-2-carboxamide]	0.301 to 2
CN1C(=O)CCC1C(=O)Nc1cc(Oc2cccc(C(F)(F)F)c2)ccc1F (stereo not shown) [Compound 41, N-(2-Fluoro-5-(3-(trifluoromethyl)phenoxy)phenyl)-1-methyl-5-oxopyrrolidine-2-carboxamide]	0.301 to 2
COc1ccc(Oc2ccc(F)cc2F)cc1NC(=O)C1CCC(=O)N1 (stereo not shown) [Compound 42, N-(5-(2,4-Difluorophenoxy)-2-methoxyphenyl)-5-oxopyrrolidine-2-carboxamide]	0.05 to 0.3
COc1ccc(Oc2ccc(F)cc2F)cc1NC(=O)C1CCC(=O)N1C (stereo not shown) [Compound 43, N-(5-(2,4-Difluorophenoxy)-2-methoxyphenyl)-1-methyl-5-oxopyrrolidine-2-carboxamide]	0.05 to 0.3
COc1ccc(Oc2ccc(F)cc2F)cc1NC(=O)C1CCC(=O)N1C(C)=O (stereo not shown) [Compound 44, 1-Acetyl-N-(5-(2,4-difluorophenoxy)-2-methoxyphenyl)-5-oxopyrrolidine-2-carboxamide]	0.301 to 2
COc1ccc(Oc2ccc(C(F)(F)F)cc2)cc1NC(=O)C1CCC(=O)N1C(C)=O (stereo not shown) [Compound 47, 1-Acetyl-N-(2-methoxy-5-(4-(trifluoromethyl)phenoxy)phenyl)-5-oxo-pyrrolidine-2-carboxamide]	< 0.05
COc1ccc(Oc2ccc(C(F)(F)F)cc2)cc1NC(=O)C1CCC(=O)N1C (stereo not shown) [Compound 48, N-(2-Methoxy-5-(4-(trifluoromethyl)phenoxy)phenyl)-1-methyl-5-oxopyrrolidi-ne-2-carboxamide]	< 0.05
COc1ccc(COc2cccc(C(F)(F)F)c2)cc1NC(=O)C1CCC(=O)N1 (stereo not shown) [Compound 49, N-(2-Methoxy-5-((3-(trifluoromethyl)phenoxy)methyl)phenyl)-5-oxopyrrolidine-2-carboxamide]	0.05 to 0.3

Further lines, results first:

IC50 [µM]	SMILES
0.301 to 2	COc1ccc(COc2cccc(C(F)(F)F)c2)cc1NC(=O)C1CCC(=O)N1C(C)=O (stereo not shown) [Compound 50, 1-Acetyl-N-(2-methoxy-5-((3-(trifluoromethyl)phenoxy)methyl)phenyl)-5-oxopyrrolidine-2-carboxamide]
0.301 to 2	COc1ccc(OCc2cccc(C(F)(F)F)c2)cc1NC(=O)C1CCC(=O)N1C(C)=O (stereo not shown) [Compound 51, 1-Acetyl-N-(2-methoxy-5-((3-(trifluoromethyl)benzyl)oxy)phenyl)-5-oxo-pyrrolidine-2-carboxamide]
0.05 to 0.3	COc1ccc(OCc2cccc(C(F)(F)F)c2)cc1NC(=O)C1CCC(=O)N1 (stereo not shown) [Compound 52, N-(2-Methoxy-5-((3-(trifluoromethyl)benzyl)oxy)phenyl)-5-oxopyrrolidine-2-carboxamide]
0.05 to 0.3	COc1ccc(OCc2cccc(C(F)(F)F)c2)cc1NC(=O)C1CCC(=O)N1C (stereo not shown) [Compound 53, N-(2-Methoxy-5-((3-(trifluoromethyl)benzyl)oxy)phenyl)-1-methyl-5-oxo-pyrrolidine-2-carboxamide]
0.301 to 2	O=C(Nc1cc(Oc2cccc(C(F)(F)F)c2)cc2c1OCCO2)C1CCS(=O)(=O)N1 (stereo not shown) [Compound 54, N-(7-(3-(Trifluoromethyl)phenoxy)-2,3-dihydrobenzo[b][1,4]dioxin-5-yl)-isothiazolidine-3-carboxamide 1,1-dioxide]
0.05 to 0.3	O=C1CCC(C(=O)Nc2cc(Oc3cccc(C(F)(F)F)c3)cc3c2OCCO3)N1 (stereo not shown) [Compound 55, 5-Oxo-N-(7-(3-(trifluoromethyl)phenoxy)-2,3-dihydrobenzo[b][1,4]dioxin-5-yl)pyrrolidine-2-carboxamide]
0.05 to 0.3	CC(=O)N1C(=O)CCC1C(=O)Nc1cc(Oc2cccc(C(F)(F)F)c2)cc2c1OCCO2 (stereo not shown) [Compound 56, 1-Acetyl-5-oxo-N-(7-(3-(trifluoromethyl)phenoxy)-2,3-dihydrobenzo[b][1,4]-dioxin-5-yl)pyrrolidine-2-carboxamide]
0.05 to 0.3	O=C1CCC(C(=O)Nc2cc(COc3cccc(F)c3)cc3c2OCCO3)N1 (stereo not shown) [Compound 57, N-(7-((3-Fluorophenoxy)methyl)-2,3-dihydrobenzo[b][1,4]dioxin-5-yl)-5-oxopyrrolidine-2-carboxamide]
0.301 to 2	CN1C(=O)CCC1C(=O)Nc1cc(COc2cccc(F)c2)cc2c1OCCO2 (stereo not shown) [Compound 58, N-(7-((3-Fluorophenoxy)methyl)-2,3-dihydrobenzo[b][1,4]dioxin-5-yl)-1-methyl-5-oxopyrrolidine-2-carboxamide]
< 0.05	COc1ccc(Oc2ccc(F)c(F)c2)cc1NC(=O)C1CCC(=O)N1 (stereo not shown) [Compound 59, N-(5-(3,4-Difluorophenoxy)-2-methoxyphenyl)-5-oxopyrrolidine-2-carboxamide]
0.05 to 0.3	COc1ccc(Oc2ccc(F)c(F)c2)cc1NC(=O)C1CCC(=O)N1C (stereo not shown) [Compound 60, N-(5-(3,4-Difluorophenoxy)-2-methoxyphenyl)-1-methyl-5-oxopyrrolidine-2-carboxamide]
0.301 to 2	Cc1c(Oc2cccc(C(F)(F)F)c2)cc(NC(=O)C2CCC(=O)N2)c2c1OCCO2 (stereo not shown) [Compound 61, N-(8-Methyl-7-(3-(trifluoromethyl)phenoxy)-2,3-dihydrobenzo[b][1,4]dioxin-5-yl)-5-oxopyrrolidine-2-carboxamide]
0.05 to 0.3	COc1ccc(Oc2ccc(C(F)(F)F)nc2)cc1NC(=O)C1CCC(=O)N1 (stereo not shown) [Compound 62, N-(2-Methoxy-5-((6-(trifluoromethyl)pyridin-3-yl)oxy)phenyl)-5-oxopyrrolidine-2-carboxamide]
0.05 to 0.3	COc1ccc(Oc2ccc(C(F)(F)F)nc2)cc1NC(=O)C1CCC(=O)N1C (stereo not shown) [Compound 63, N-(2-Methoxy-5-((6-(trifluoromethyl)pyridin-3-yl)oxy)phenyl)-1-methyl-5-oxopyrrolidine-2-carboxamide]
0.301 to 2	COc1ccc(/C=C/C2CCOCC2)cc1NC(=O)C1CCC(=O)N1C (stereo not shown) [Compound 64, (E)-N-(2-Methoxy-5-(2-(tetrahydro-2H-pyran-4-yl)vinyl)phenyl)-1-methyl-5-oxopyrrolidine-2-carboxamide]
0.301 to 2	COc1ccc(/C=C/C2CCOCC2)cc1NC(=O)C1CCC(=O)N1 (stereo not shown) [Compound 65, (E)-N-(2-Methoxy-5-(2-(tetrahydro-2H-pyran-4-yl)vinyl)phenyl)-5-oxo-pyrrolidine-2-carboxamide]
